Reference: US6613718B2, “Aryl ether derivatives and processes for their preparation and herbicidal and desiccant compositions containing them” (Ishihara Sangyo Kaisha, Ltd., priority 2001, dated 2003)

Columns and labels:
Type in all cases: in vivo
[1] = tested on: upland rice (Oryza sp., var.Tebonnet, RICE); test: Post-emerge greenhouse screening, crop safety (phytotoxicity rating); conditions: 14 days after application
In short: (§1)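 Plants grown in sandy loam pots received acetone solutions of compound by moving-nozzle track sprayer, 15–1000 g ai/ha. In post-emergence runs the foliage was at the 2-3 leaf stage and spray contained 0.25% v/v non-ionic surfactant. Damage was assessed visually after 14 days (0-100).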

[2] = tested on: soybean (Glycine max L., var. Pella 86, SOY); test: as above; conditions: 14 days after application
In short: as §1

[3] = tested on: ivyleaf morningglory (Ipomoea hederacea, IPOHE); test: Pre-emerge greenhouse herbicide activity screening, phytotoxicity rating; conditions: 14 days after application
In short: as §1

[4] = tested on: large crabgrass (Digitaria sanguinalis, DIGSA); test: as above; conditions: 14 days after application
In short: as §1

[5] = tested on: common ragweed (Ambrosia artemisiifolia L., AMBEL); test: as above; conditions: 14 days after application
In short: as §1

[6] = tested on: lambsquarters (Chenopodium album, CHEAL); test: as above; conditions: 14 days after application
In short: as §1

[7] = tested on: green foxtail (Setaria viridis, SETVI); test: as above; conditions: 14 days after application
In short: as §1

[8] = tested on: sicklepod (Cassia obtusifolia, CASOB); test: as above; conditions: 14 days after application
In short: as §1

[9] = tested on: redroot pigweed (Amaranthus retroflexus, AMARE); test: as above; conditions: 14 days after application
In short: as §1

[10] = tested on: velvetleaf (Abutilon theophrasti, ABUTH); test: as above; conditions: 14 days after application
In short: as §1

[11] = tested on: barnyardgrass (Echinochloa crus-galli, ECHCG); test: as above; conditions: 14 days after application
In short: as §1

[12] = tested on: johnsongrass (Sorghum halepense, SORHA); test: as above; conditions: 14 days after application
In short: as §1

[13] = tested on: ivyleaf morningglory (Ipomoea hederacea, IPOHE); test: Post-emerge greenhouse herbicide activity screening, phytotoxicity rating; conditions: 14 days after application
In short: as §1

[14] = tested on: large crabgrass (Digitaria sanguinalis, DIGSA); test: as above; conditions: 14 days after application
In short: as §1

[15] = tested on: common ragweed (Ambrosia artemisiifolia L., AMBEL); test: as above
In short: as §1

[16] = tested on: lambsquarters (Chenopodium album, CHEAL); test: as above
In short: as §1

[17] = tested on: green foxtail (Setaria viridis, SETVI); test: as above
In short: as §1

[18] = tested on: sicklepod (Cassia obtusifolia, CASOB); test: as above
In short: as §1

[19] = tested on: redroot pigweed (Amaranthus retroflexus, AMARE); test: as above
In short: as §1

[20] = tested on: velvetleaf (Abutilon theophrasti, ABUTH); test: as above; conditions: 14 days after application
In short: as §1

[21] = tested on: barnyardgrass (Echinochloa crus-galli, ECHCG); test: as above; conditions: 14 days after application
In short: as §1

[22] = tested on: johnsongrass (Sorghum halepense, SORHA); test: as above; conditions: 14 days after application
In short: as §1

[23] = tested on: upland rice (Oryza sp., var.Tebonnet, RICE); test: Pre-emerge greenhouse screening, crop safety (phytotoxicity rating); conditions: 14 days after application
In short: as §1

[24] = tested on: soybean (Glycine max L., var. Pella 86, SOY); test: as above; conditions: 14 days after application
In short: as §1

[25] = tested on: field corn (Zea mays L., var. Dekalb 535, CORN); test: as above; conditions: 14 days after application
In short: as §1

[26] = tested on: field corn (Zea mays L., var. Dekalb 535, CORN); test: Post-emerge greenhouse screening, crop safety / corn selectivity (phytotoxicity rating); conditions: 14 days after application
In short: as §1

[27] = 125 g ai/ha, 14 days after application
[28] = 250 g ai/ha, 14 days after application

`Cn1c(C(F)(F)F)cc(=O)n(-c2cc(Oc3ccccc3N)c(Cl)cc2F)c1=S` [Compound 1-48] was tested, and the “RICE crop damage, phytotoxicity rating (0-100 scale)” value (“RICE crop damage” below) ([1]; 125 g ai/ha) was 0, the “RICE crop damage” value ([1]; 250 g ai/ha) was 35 and the “SOY crop damage, phytotoxicity rating (0-100 scale)” value (shortened to “SOY crop damage”) ([2]; 125 g ai/ha) was 0. For the same molecule, the “SOY crop damage” value ([2]; 250 g ai/ha) was 0, the “IPOHE phytotoxicity rating (0-100 scale)” value ([3]; 125 g ai/ha) was 80 and the “IPOHE phytotoxicity rating (0-100 scale)” value ([3]; 250 g ai/ha) was 100. For the same molecule, the “DIGSA phytotoxicity rating (0-100 scale)” value ([4]; 125 g ai/ha) was 55, the “DIGSA phytotoxicity rating (0-100 scale)” value ([4]; 250 g ai/ha) was 75 and the “AMBEL phytotoxicity rating (0-100 scale)” value ([5]; 125 g ai/ha) was 70. For the same molecule, the “AMBEL phytotoxicity rating (0-100 scale)” value ([5]; 250 g ai/ha) was 70, the “CHEAL phytotoxicity rating (0-100 scale)” value ([6]; 125 g ai/ha) was 100 and the “CHEAL phytotoxicity rating (0-100 scale)” value ([6]; 250 g ai/ha) was 100. The “SETVI phytotoxicity rating (0-100 scale)” value ([7]; 125 g ai/ha) was 90, the “SETVI phytotoxicity rating (0-100 scale)” value ([7]; 250 g ai/ha) was 99 and the “CASOB phytotoxicity rating (0-100 scale)” value ([8]; 125 g ai/ha) was 0. For the same molecule, the “CASOB phytotoxicity rating (0-100 scale)” value ([8]; 250 g ai/ha) was 0, the “AMARE phytotoxicity rating (0-100 scale)” value ([9]; 125 g ai/ha) was 100 and the “AMARE phytotoxicity rating (0-100 scale)” value ([9]; 250 g ai/ha) was 100. For the same molecule, the “ABUTH phytotoxicity rating (0-100 scale)” value ([10]; 125 g ai/ha) was 90, the “ABUTH phytotoxicity rating (0-100 scale)” value ([10]; 250 g ai/ha) was 100 and the “ECHCG phytotoxicity rating (0-100 scale)” value ([11]; 125 g ai/ha) was 80. The “ECHCG phytotoxicity rating (0-100 scale)” value ([11]; 250 g ai/ha) was 85, the “SORHA phytotoxicity rating (0-100 scale)” value ([12]; 125 g ai/ha) was 55 and the “SORHA phytotoxicity rating (0-100 scale)” value ([12]; 250 g ai/ha) was 85. For the same molecule, the “IPOHE phytotoxicity rating (0-100 scale)” value ([13]; 125 g ai/ha) was 80, the “IPOHE phytotoxicity rating (0-100 scale)” value ([13]; 250 g ai/ha) was 75 and the “DIGSA phytotoxicity rating (0-100 scale)” value ([14]; 125 g ai/ha) was 25. The “DIGSA phytotoxicity rating (0-100 scale)” value ([14]; 250 g ai/ha) was 50, the “AMBEL phytotoxicity rating (0-100 scale)” value ([15]; 31.3 g ai/ha) was 60 and the “AMBEL phytotoxicity rating (0-100 scale)” value ([15]; 62.5 g ai/ha) was 50. The “AMBEL phytotoxicity rating (0-100 scale)” value [15, 27] was 60, the “AMBEL phytotoxicity rating (0-100 scale)” value [15, 28] was 75 and the “CHEAL phytotoxicity rating (0-100 scale)” value ([16]; 31.3 g ai/ha) was 80. The “CHEAL phytotoxicity rating (0-100 scale)” value ([16]; 62.5 g ai/ha) was 99, the “CHEAL phytotoxicity rating (0-100 scale)” value [16, 27] was 100 and the “CHEAL phytotoxicity rating (0-100 scale)” value [16, 28] was 100. The “SETVI phytotoxicity rating (0-100 scale)” value ([17]; 31.3 g ai/ha) was 0, the “SETVI phytotoxicity rating (0-100 scale)” value ([17]; 62.5 g ai/ha) was 30 and the “SETVI phytotoxicity rating (0-100 scale)” value [17, 27] was 50. For the same molecule, the “SETVI phytotoxicity rating (0-100 scale)” value [17, 28] was 60, the “CASOB phytotoxicity rating (0-100 scale)” value ([18]; 31.3 g ai/ha) was 50 and the “CASOB phytotoxicity rating (0-100 scale)” value ([18]; 62.5 g ai/ha) was 75. For the same molecule, the “CASOB phytotoxicity rating (0-100 scale)” value [18, 27] was 75, the “CASOB phytotoxicity rating (0-100 scale)” value [18, 28] was 75 and the “AMARE phytotoxicity rating (0-100 scale)” value ([19]; 31.3 g ai/ha) was 100. The “AMARE phytotoxicity rating (0-100 scale)” value ([19]; 62.5 g ai/ha) was 100, the “AMARE phytotoxicity rating (0-100 scale)” value [19, 27] was 100 and the “AMARE phytotoxicity rating (0-100 scale)” value [19, 28] was 100. For the same molecule, the “ABUTH phytotoxicity rating (0-100 scale)” value ([20]; 125 g ai/ha) was 85, the “ABUTH phytotoxicity rating (0-100 scale)” value ([20]; 250 g ai/ha) was 95 and the “ECHCG phytotoxicity rating (0-100 scale)” value ([21]; 125 g ai/ha) was 0. The “ECHCG phytotoxicity rating (0-100 scale)” value ([21]; 250 g ai/ha) was 0, the “SORHA phytotoxicity rating (0-100 scale)” value ([22]; 125 g ai/ha) was 0 and the “SORHA phytotoxicity rating (0-100 scale)” value ([22]; 250 g ai/ha) was 0. The “RICE crop damage” value ([23]; 125 g ai/ha) was 0, the “RICE crop damage” value ([23]; 250 g ai/ha) was 8 and the “SOY crop damage” value ([24]; 125 g ai/ha) was 0. The “SOY crop damage” value ([24]; 250 g ai/ha) was 0, the “CORN crop damage, phytotoxicity rating (0-100 scale)” value (“CORN crop damage” below) ([25]; 125 g ai/ha) was 0 and the “CORN crop damage” value ([25]; 250 g ai/ha) was 5. For the same molecule, the “CORN crop damage” value ([26]; 125 g ai/ha) was 0 and the “CORN crop damage” value ([26]; 250 g ai/ha) was 10.
